Source: patent EP4685136A1, “AMINO LIPID, AND LIPID NANOPARTICLES AND USE THEREOF” (Shenzhen MagicRNA Biotechnology Co., Ltd., priority 2023, dated 2024)

Tests used:
[1] = Encapsulation efficiency of LNPs with different phospholipid lipid contents (microplate reader); assay type: physicochemical; conditions: Luc-mRNA LNPs, molar ratios of Table 4 (B1-B7); controls with 10 % phospholipid lipid
Excerpt: (§1) Preparation of lipid nanoparticles: the ionizable lipid (E12LA6B6O3) content was kept at 42.5%, the PEGylated lipid DMG-PEG2000 content was kept at 1.5%, and the phospholipid lipid ratio was adjusted to 15, 12.5, 10, 7.5, 5.0, 2.5, and 0. The increased or decreased molar ratio during adjustment of the phospholipid lipid molar ratio was applied to the cholesterol ratio to verify its effect on the quality control evaluation of lipid nanoparticles and on the in vivo delivery performance of luciferase mRNA. ALC-0315 and SM-102 were used as positive controls. Table 4: Component ratios under different phospholipids
E12LA6B6O3, phospholipid lipid (DSPC), cholesterol, and PEGylated lipid DMG-PEG2000 were mixed and dissolved in anhydrous ethanol according to the molar ratio in Table 4. The obtained ethanol solution and citric acid buffer (50 mM, pH = 4.0) dissolved with Luc-mRNA (TriLink) were mixed in a microfluidic chip at a volume ratio of 1:3 using a microfluidic preparation system to prepare a crude solution of lipid nanoparticles, which was then dialyzed in 1X PBS at 4°C for 6 h using a dialysis cassette (Fisher, MWCO 20,000). […] The quality control of lipid nanoparticles was tested on a Malvern particle size analyzer and an microplate reader, and SM-102 and ALC-0315 (both purchased from AVT (Shanghai) Pharmaceutical Technology Co., Ltd) were added as a control group.

Balb/C mice = assay: In vivo delivery of luciferase mRNA by tail vein injection of LNPs with different DSPC contents (IVIS Spectrum); conditions: total fluorescence intensity, 0.1 mg/kg mRNA, 6 hours
Excerpt: as §1
E12LA6B6O3, phospholipid lipid (DSPC), cholesterol, and PEGylated lipid DMG-PEG2000 were mixed and dissolved in anhydrous ethanol according to the molar ratio in Table 4. […] The quality control of lipid nanoparticles was tested on a Malvern particle size analyzer and an microplate reader, and SM-102 and ALC-0315 (both purchased from AVT (Shanghai) Pharmaceutical Technology Co., Ltd) were added as a control group. […]
In vivo delivery: Three Balb/C mice were randomly selected from each group and injected with lipid nanoparticle solution at a dose of 0.1 mg/kg mRNA via tail vein injection. […] After 10 minutes, the mice were placed under the in vivo imaging system (IVIS Spectrum) to observe the total fluorescence intensity of each mouse and take photos for recording. […]

[2] = Particle size and PDI of LNPs with different phospholipid lipid contents (Malvern particle size analyzer); assay type: physicochemical; conditions: Luc-mRNA LNPs, molar ratios of Table 4 (B1-B7); controls with 10 % phospholipid lipid
Excerpt: as §1
E12LA6B6O3, phospholipid lipid (DSPC), cholesterol, and PEGylated lipid DMG-PEG2000 were mixed and dissolved in anhydrous ethanol according to the molar ratio in Table 4. The obtained ethanol solution and citric acid buffer (50 mM, pH = 4.0) dissolved with Luc-mRNA (TriLink) were mixed in a microfluidic chip at a volume ratio of 1:3 using a microfluidic preparation system to prepare a crude solution of lipid nanoparticles, which was then dialyzed in 1X PBS at 4°C for 6 h using a dialysis cassette (Fisher, MWCO 20,000). The product was filtered through a 0.22 µm microporous filter membrane before use. The base molar ratio of the amino lipid compound to the luciferase mRNA (Luc mRNA) is about 6.5:1. The quality control of lipid nanoparticles was tested on a Malvern particle size analyzer and an microplate reader, and SM-102 and ALC-0315 (both purchased from AVT (Shanghai) Pharmaceutical Technology Co., Ltd) were added as a control group.

primary BMDC cells = assay: Transfection of Luc mRNA lipid nanoparticles on primary BMDC cells (ONE-Glo luciferase readout); assay type: cell-based, C57BL/6 mice; conditions: expression intensity of Luc mRNA on BMDCs; 10 µL LNP per well, 20,000 cells per well, 12 hours
Description: (§2) Animal preparation: 6-week-old female C57BL/6 mice weighing about 20 g were selected and raised in an SPF-grade feeding room. Animal experiments were conducted strictly in accordance with the guidelines of the National Institutes of Health and animal ethics requirements.
Cell acquisition: C57BL/6 mice were sacrificed by cervical dislocation and immersed in 75% alcohol for 5 minutes for disinfection. The thigh and tibia of the mice were dissected and the attached muscles were removed to expose the bone. The bone marrow in the tibia was blown out with a 1 mL syringe filled with PBS. The obtained bone marrow was dispersed by blowing and filtered through a 50 µm filter mesh to remove impurities. Red blood cell lysis solution (3-4 mL) was added to the obtained filtrate and allowed to stand for 5 minutes. Then, the supernatant was removed by centrifugation at 800 g for 5 minutes. The obtained cells were placed in 1640 culture medium (containing 10% fetal bovine serum, 20 ng/mL GMCSF, 10 ng/mL IL4) for being resuspended, and inoculated into 6-well plates at a density of 100,000 cells/mL of culture medium. The plates were placed in a cell culture incubator containing 5% CO2 at 37°C, and the medium was half-changed every 2 days. On the seventh day, the suspended cells and loosely adherent cells were collected and inoculated into 96-well all-white ELISA plates at a density of 20,000 cells per well, with a culture medium volume of 100 µL.
Cell transfection: the lipid nanoparticles encapsulating luciferase mRNA were added to a 96-well all-white ELISA plate with spreaded primary cells, and the volume of mRNA lipid nanoparticles added to each well was controlled to be 10 µL. Then, the plate was placed in an incubator with 5% CO2 concentration at 37°C for 12 hours.
Transfection efficiency detection: 20 µL of substrate ONE-Glo™ Luciferase was added to each well of a 96-well all-white ELISA plate, and the assay was performed using a multifunctional microplate reader (Biorek SynergyH1) after 1 min. The expression intensity of Luc mRNA transfected on BMDCs by lipid nanoparticles (LNPs) composed of representative amino lipid compounds is shown in Table 2, with DLin-MC3 and SM0102 as controls. Table 2 Expression intensity of transfection of representative amino lipid compounds on BMDCs

[3] = Particle size and PDI of Luc-mRNA lipid nanoparticles (Nano-ZS ZEN3600, Malvern); assay type: physicochemical; conditions: LNP of amino lipid:DSPC:cholesterol:DMG-PEG2000 47.5:10:41:1.5 with Luc-mRNA; lipid to mRNA mass ratio about 40:1
Description: (§3) The amino lipid compound of the present invention (or DLin-MC3 or SM-102 (both purchased from AVT (Shanghai) Pharmaceutical Technology Co., Ltd.)), phospholipid lipid (DSPC), cholesterol, and PEGylated lipid (DMG-PEG2000) were mixed and dissolved in anhydrous ethanol at a molar ratio of 47.5:10:41:1.5. The resulting ethanol solution and citric acid buffer (50 mM, pH = 4.0) dissolved with Luc-mRNA (TriLink) were mixed in a microfluidic chip at a volume ratio of 1:3 using a microfluidic preparation system to prepare a crude solution of lipid nanoparticles, which was then dialyzed in 1X PBS at 4°C for 6 h using a dialysis cassette (Fisher, MWCO 20,000). The product was filtered through a 0.22 µm microporous filter membrane before use. The mass ratio of the amino lipid compound to luciferase mRNA (Luc mRNA) was about 40:1.
The particle size and PDI (polydispersity index) of the prepared lipid nanoparticles were measured by Nano-ZSZEN3600 (Malvern). 20 µL of lipid nanoparticle (LNP) solution was taken for particle size measurement, and cycled three times with each cycle for 30 s.

C57BL/6 mice = assay: In vivo delivery of luciferase mRNA by intramuscular injection of LNPs (IVIS imaging); conditions: total fluorescence intensity, Luc mRNA LNP, 0.5 mg/kg mRNA, 12 hours
Description: Preparation of lipid nanoparticles: same as Example 36.
as §2
In vivo delivery: Five C57BL/6 mice were randomly selected from each group and injected with lipid nanoparticle solution at a dose of 0.5 mg/kg mRNA by intramuscular injection. Twelve hours later, 200 µL of 10 mg/mL D-luciferin potassium salt was injected into the peritoneal cavity of each mouse. Five minutes later, the mice were placed under an in vivo imaging system (IVIS-200, Xenogen) to observe the total fluorescence intensity of each mouse and take photos for recording. The expression intensity of Luc mRNA delivered by intramuscular injection of LNPs composed of representative amino lipid compounds is shown in Table 3, with DLin-MC3 and SM-102 as controls. Table 3 Expression intensity of Luc mRNA delivered by intramuscular injection of LNPs composed of representative amino lipids

[4] = Encapsulation efficiency of Luc-mRNA lipid nanoparticles (Quant-iT RiboGreen RNA Kit); assay type: physicochemical; conditions: LNP of amino lipid:DSPC:cholesterol:DMG-PEG2000 47.5:10:41:1.5 with Luc-mRNA; lipid to mRNA mass ratio about 40:1
Description: as §3
The encapsulation efficiency was determined according to the standard procedure of the Quant-iT RiboGreen RNA Kit. Table 1 Characterization data of LNPs prepared using representative amino lipid compounds

B16-OVA melanoma cells = assay: Tumor therapeutic effect of OVA mRNA LNP vaccine in B16-OVA melanoma-bearing mice; assay type: in vivo, C57BL/6 mice; conditions: for mice achieved complete remission: two intramuscular injections 7 days apart of LNP containing 1 µg OVA-mRNA (Figure 3); for tumor growth rate: two intramuscular injections 7 days apart of LNP containing 1 µg OVA-mRNA, compared with MC3 group (Figure 2)
Description: Preparation method: The amino lipid compound of the present invention was mixed with DSPC, cholesterol and DMG-PEG2000 at a molar ratio of 47.5:10:41:1.5 and dissolved in anhydrous ethanol. The obtained ethanol solution and citric acid buffer (50 mM, pH = 4.0) dissolved with OVA-mRNA were mixed in a microfluidic chip at a volume ratio of 1:3 using a microfluidic preparation system to prepare lipid nanoparticles, and then dialyzed in 1X PBS at 4°C for 6 h using a dialysis cassette (Fisher, MWCO 20,000) and filtered with a 0.22 µm microporous filter membrane before use. The mass ratio of the amino lipid compound to ovalbumin mRNA (OVA mRNA) was about 40: 1.
Animal preparation: Female C57BL/6 mice aged 5-6 weeks, weighing about 18-20 g were selected and kept in an SPF-grade feeding room. Animal experiments were conducted strictly in accordance with the guidelines of the National Institutes of Health and animal ethics requirements.
In vivo delivery: B16-OVA melanoma cells (1.5 × 10^5) were injected subcutaneously into the lateral thigh of mice. Vaccination was started when the tumor size reached 50 mm^3(approximately day 6 or 7 after tumor inoculation). Animals were immunized twice by intramuscular injection of LNP formulation containing 1 µg of OVA-mRNA, with an interval of the second injection from the first injection being 7 days. Tumor growth was measured three times per week using a digital caliper and calculated as 0.5 × length × width × width. Mice were euthanized when tumor volume reached 1500 mm^3.

Compound | Encapsulation efficiency (%) [1] | PDI [2] | Particle size (nm) [2] | Average particle size (nm) [3] | PDI [3] | Encapsulation efficiency (%) [4] | Fluorescence intensity (Balb/C mice) | Luminescence intensity (primary BMDC cells) | Fluorescence intensity (C57BL/6 mice) | mice achieved complete remission (B16-OVA melanoma cells) | tumor growth rate (B16-OVA melanoma cells)
CCCCCCCC(=O)OCC(CCCCCC)OC(=O)CCCCCN(CCCO)CCCCCC(=O)OC(CCCCCC)COC(=O)CCCCCCC (stereo not drawn) [E8LA8B6O3] |  |  |  | 84 nm | 0.07 | 90.03% |  | 1.3E+05 | 7.7E+08 |  | 
CCCCCCCCCC(=O)OCC(CCCCCC)OC(=O)CCCCCN(CCCO)CCCCCC(=O)OC(CCCCCC)COC(=O)CCCCCCCCC (stereo not drawn) [E8LA10B6O3] |  |  |  | 73 nm | 0.09 | 93.95% |  | 5.2E+04 | 1.6E+09 |  | 
CCCCCCCCC(COC(=O)CCCCC)OC(=O)CCCCCN(CCCO)CCCCCC(=O)OC(CCCCCCCC)COC(=O)CCCCC (stereo not drawn) [E10LA6B6O3] |  |  |  | 92 nm | 0.07 | 95.41% |  | 1.5E+05 | 1.4E+09 | 80% | significantly slower than that of the MC3 group
CCCCCCCCCC(=O)OCC(CCCCCCCC)OC(=O)CCCCCN(CCCO)CCCCCC(=O)OC(CCCCCCCC)COC(=O)CCCCCCCCC (stereo not drawn) [E10LA10B6O3] |  |  |  | 70 nm | 0.06 | 95.90% |  | 6.9E+04 | 1.2E+09 |  | 
CCCCCCCCCCC(COC(=O)CCCCC)OC(=O)CCCCCN(CCCCCC(=O)OC(CCCCCCCCCC)COC(=O)CCCCC)CCCOC(=O)CCCCCCN(C)C (stereo not drawn) [E12LA6B6O3A6] |  |  |  | 103 nm | 0.07 | 98.5% |  |  | 1.5E+09 |  | 
CCCCCCCCCCC(COC(=O)CCCCC)OC(=O)CCCCCN(CCCO)CCCCCC(=O)OC(CCCCCCCCCC)COC(=O)CCCCC (stereo not drawn) [E12LA6B6O3] |  |  |  | 75 nm | 0.08 | 98.26% |  |  | 2.2E+09 | 100% | significantly slower than that of the MC3 group

Now from value to molecule, other results behind:

Encapsulation efficiency (%) [1] | PDI [2] | Particle size (nm) [2] | Average particle size (nm) [3] | PDI [3] | Encapsulation efficiency (%) [4] | Compound | Fluorescence intensity (Balb/C mice) | Luminescence intensity (primary BMDC cells) | Fluorescence intensity (C57BL/6 mice) | mice achieved complete remission (B16-OVA melanoma cells) | tumor growth rate (B16-OVA melanoma cells)
94.1% | 0.08 | 71.3 nm |  |  |  | CCCCCCCCC(CCCCCC)C(=O)OCCCCCCN(CCCCO)CCCCCCOC(=O)C(CCCCCC)CCCCCCCC (stereo not drawn) [ALC-0315] | 1.26E+10 |  |  |  | 
 |  |  | 72 nm | 0.12 | 89.74% | CCCCC/C=C\C/C=C\CCCCCCCCC(CCCCCCCC/C=C\C/C=C\CCCCC)OC(=O)CCCN(C)C [DLin-MC3, reference compound] |  | 4.1E+04 | 7.6 E+08 |  | 
 |  |  | 73 nm | 0.10 | 94.90% | CCCCCCCCCCC(COC(=O)CCCCCCC)OC(=O)CCCCCN(CCCO)CCCCCC(=O)OC(CCCCCCCCCC)COC(=O)CCCCCCC (stereo not drawn) [E12LA8B6O3] |  | 7.6E+04 | 8.2E+08 |  | 
 |  |  | 129 nm | 0.08 | 98.8% | CCCCCCCCCCC(CCOC(=O)CCCCC)OC(=O)CCCCCN(CCCO)CCCCCC(=O)OC(CCCCCCCCCC)CCOC(=O)CCCCC (stereo not drawn) [K3LA6B6O3] |  | 5.4E+05 | 2.0E+09 |  | 
96.4% | 0.09 | 91.9 nm | 79 nm | 0.10 | 94.32% | CCCCCCCCCCCOC(=O)CCCCCN(CCO)CCCCCCCC(=O)OC(CCCCCCCC)CCCCCCCC [SM-102, reference compound] | 9.86E+9 | 1.0E+05 | 1.4E+09 |  | 
